Results published in patent US5623080A, “Fluorone and pyronin Y derivatives” (Spectra Group Limited, Inc., priority 1995, dated 1997).
Values belong to the molecule of their own block, whether it stands above or below them.

Experiments:
[1] = absorption wavelength (λmax) and extinction (ε); type: physicochemical; conditions: for λmax in EtOH (first value) / ε (first value) / λmax in EtOH / ε: Table 1, EtOH; for ε (first value): at first λmax, in M-1cm-1 (unit assumed); for ε: at second λmax; for absorption wavelength: comparison
[2] = double bond conversion (C=C% Conversion) by FTIR; conditions: (1:2:3), DIDMA, 30 sec
Protocol: (§1) To a resin formulation consisting of 15 parts urethane diacrylate, 15 parts DPHPA, 20 parts TPGDA and 40 parts TMPTA was added DIDMA, initiator and (4-octyloxyphenyl)phenyliodonium hexafluoroantimonate (OPPI). The samples were coated to a thickness of 15 microns and exposed to a 75 W tungsten halogen dental lamp (focused through an optical fiber) at a distance of 0.75 inch at which the Light intensity was about 0.40 W/cm^2. The molar ratios are indicative of the amounts of fluorone to onium salt to amine coinitiator. The double bond conversion was determined by FTIR spectroscopy. The pencil hardness of a given test sample is measured by holding a pencil at a 45° angle to the sample and drawing across it towards the person testing it. Using the pencils in an order from softest to hardest, the first pencil that scratches the surface is assigned as the pencil hardness of the sample. The pencil hardness scale is as follows from softest to hardest: 4B, 3B, 2B, B, HB, H, 2H, 3H, 4H, 6H. For instance, if a 2H pencil is the first pencil to scratch the surface then the pencil hardness is 2H.

[3] = pencil hardness; conditions: 0.05 wt. %
Protocol: as §1
At the extreme ends of the scale, it is impossible to determine the actual pencil hardness. […] Likewise, if the 4B pencil scratches the sample, the only assignment that can be made is <4B, unless it is a lot softer than 4B in which case a <<4B can be assigned. A pencil hardness of 4H is generally considered satisfactory. Pencil hardness data was greater than 6H after 30 seocnd exposure for all samples except for the control samples without amine (1:2:0). The controls were all less than 4B an 0.05 wt %, 0.10 wt %, and 0.15 wt %.
Photosensitive compositions were prepared from the resin formulation of Example 35 containing 1% NPG and 0.05% DIBF or 0.05% DIEF. The samples were exposed under the conditions shown in the following table and pencil hardness was measured.
Diphenyliodonium hexafluoroantimonate was added to DIBF samples.
Samples were also prepared using 1% DIDMA in addition to the fluorone for a 20:1 weight ratio.
Samples were also prepared from the same resin formulation containing 0.1% DIBF in addition to the coinitiator listed in the following Table 9 with the exposure condition and pencil hardness results shown.
Using the resin formulation of Example 36, photosensitive compositions were prepared using TIHF, DIDMA and OPPI at a concentration of 0.21% and in the molar ratios shown in Table 10 which follows. Exposure was conducted with the dental lamp at a distance of 1 inch from the sample to provide an intensity of about 0.26 W/cm^2. Molar ratios are fluorone:onium salt:amine.

[4] = depth of cure
Text: One of the advantages of the fluorone dye photoinitiators in this invention is the depth of the cure that is obtainable. This is in contrast to UV photoinitators that causes a "screening" effect which prevents the UV light from penetrating beyond a certain […] depth, usually several millimeters. By contrast, the fluorone dye bleaches as it photoinitiates and is concommitantly converted into a non-visible absorbing species thus allowing more visible light to penetrate which continues the cure. This cascading bleaching effect permits substantial depth of cure which can easily reach several inches.
An acrylate monomer mixture was composed of 15 parts urethane diacrylate, 20 parts TPGPA, 40 parts TMPTA and 15 parts DPHPA, and a 20 to 1 weight ratio of NPG coinitiator to DIEF or DIBF fluorone dye. For dye concentrations of 0.01, 0.05 and 0.1 weight, all the formulations cured to a depth of 3 cm in 30 seconds when exposed to a 350 watt tungsten halogen light which provides about 500 mw/cm^2 irradiance. When the irradiance was increased to about 2 watts/cm^2 cure speed was shortened to 5 seconds for the same depth.
An acrylate mixture was composed of 60% urethane diacrylate, 30% DPHPA, 10% BDDA, and 0.05 weight % of DIEF or DIBF fluorone dye with 2 weight % of DIDMA. The formulation cure to a depth greater than 1 cm in 10 seconds when exposed to a 75 watt tungsten halogen lamp which provided an irradiance of about 260 mw/cm^2.
An acrylate mixture was composed of 33% TMPTA, 33% DPHPA, 33% Epoxy acrylate, and 2% of DIDMA with either 0.01, 0.05 or 0.1 weight % of DIEF. All samples cured to a depth greater than 1 cm in 10 seconds when exposed to a 75 watt tungsten halogen.
An acrylate mixture was composed of 70% urethane diacrylate, 5% DPHPA, 25% BDDA, and 2% DIDMA with either 0.01, 0.03 or 0.1 weight % DIEF. The 0.01 and 0.03 samples cured after 2 passes through a 300 watt per inch medium pressure mercury arc lamp at a speed of 50 feet/minute to a depth greater than 3 mm. The 0.1 sample cured to a depth of greater than 1.5 mm.

[5] = oxidation and reduction potentials (Eox, Ered); type: physicochemical; conditions: in V (unit assumed)
Text: (§2) In Table 2 below, the properties of the foregoing initiators are shown: […]

[6] = pKa; type: physicochemical
Text: as §2

[7] = fluorescence (λf, φf); type: physicochemical; conditions: 10^-7 M (footnote c)
Text: In Table 2 below, the properties of the foregoing initiators are shown:
Entries in the table are in the solvents according to the following order.

Molecule: CCCCOc1ccc2c(C#N)c3cc(I)c(=O)c(I)c-3oc2c1 [Compound 7, 9-cyano-5,7-diiodo-3-butoxy-6-fluoorone]
λmax in EtOH (first value) [1]: 600

Molecule: N#Cc1c2cc(Br)c(=O)c(Br)c-2oc2c(Br)c(O)c(Br)cc12 [Compound 14, 9-cyano-3-hydroxy-2,4,5,7-tetrabromo-6-fluorone]
λmax in EtOH [1]: 576
λmax in EtOH (first value) [1]: 626
ε (first value) [1]: 51400
ε [1]: 24500 M⁻¹ cm⁻¹

Molecule: CCCCCCCCc1cc2c(C#N)c3cc(I)c(=O)c(I)c-3oc2c(I)c1O [Compound 20, 9-cyano-3-hydroxy-4,5,7-triiodo-2-octyl-6-fluorone]
λmax in EtOH (first value) [1]: 630
ε (first value) [1]: 40,000
absorption wavelength [1]: 630 nm
λmax ([1]; in EtOH): 630 nm

Molecule: CC(C)(C)c1cc2cc3cc(C(C)(C)C)c(=O)c(I)c-3oc2c(I)c1O [Compound 26, 2,7-di-t-butyl-4,5-diiodo-3-hydroxy-6-fluorone]
λmax in EtOH (first value) [1]: 532
ε (first value) [1]: 90800

Molecule: CC(C)(C)c1cc2c(C#N)c3cc(C(C)(C)C)c(=O)c(I)c-3oc2c(I)c1O [Compound 27, 9-cyano-2,7-di-t-butyl-4,5-diiodo-3-hydroxy-6-fluorone]
λmax in EtOH [1]: 582
λmax in EtOH (first value) [1]: 636
ε (first value) [1]: 68300
ε [1]: 33600 M⁻¹ cm⁻¹

Molecule: O=c1ccc2cc3ccc(O)cc3sc-2c1 [Compound 29, 3-hydroxy-6-thiafluorone]
λmax in EtOH (first value) [1]: 524

Molecule: CC(C)(C)c1cc2cc3cc(C(C)(C)C)c(=O)cc-3oc2cc1O [Compound 30, 2,7-di-t-butyl-3-hydroxy-6-fluorone]
λmax in EtOH (first value) [1]: 518
ε (first value) [1]: 101000

Molecule: CC(C)(C)c1cc2c(C#N)c3cc(C(C)(C)C)c(=O)cc-3oc2cc1O [Compound 31, 9-cyano-2,7-di-t-butyl-3-hydroxy-6-fluorone]
λmax in EtOH [1]: 564
λmax in EtOH (first value) [1]: 614
ε (first value) [1]: 47400
ε [1]: 23200 M⁻¹ cm⁻¹

Molecule: O=C(O)CCCc1cc2cc3ccc(O)cc3oc-2cc1=O [Compound 37a, 3-hydroxy-7-butyric acid-6-fluorone]
λmax in EtOH (first value) [1]: 512

Molecule: CCCCCCCCOc1ccc2cc3cc(I)c(=O)c(I)c-3oc2c1 [DIOF, 5,7-diiodo-3-octoxy-6-fluorone]
C=C% Conversion ([2]; 0.05 wt %): 40%
C=C% Conversion ([2]; 0.15 wt %): 40%
λmax in EtOH (first value) [1]: 470
ε (first value) [1]: 31,600

Further lines, with some results ahead:

λmax in EtOH (first value) [1]: 470
ε (first value) [1]: 23,500
Molecule: 5,7-diiodo-3-methoxy-6-fluorone [DIMF]

λmax in EtOH (first value) [1]: 596
ε (first value) [1]: 74,000
Molecule: N#Cc1c2ccc(=O)cc-2oc2cc(O)c(CCCC(=O)O)cc12 [Compound 37b, 9-cyano-3-hydroxy-7-butyric acid-6-fluorone]

λmax in EtOH (first value) [1]: 470
ε (first value) [1]: 21,100
Molecule: CCOc1ccc2cc3cc(I)c(=O)c(I)c-3oc2c1 [DIEF, 5,7-diiodo-3-ethoxy-6-fluorone]
C=C% Conversion ([2]; 0.05 wt %): 40%
Pencil hardness ([3]; 1% DIDMA, Dental Lamp, Air, 60 sec): 3B
Pencil hardness ([3]; 1% DIDMA, Dental Lamp, No Air, 30 sec): 3B
Pencil hardness ([3]; 1% DIDMA, Dental Lamp, No Air, 60 sec): 2B
Pencil hardness ([3]; 1% DIDMA, Fusion (Q bulb), Air, 10 ft/min): 2B
Pencil hardness ([3]; 1% DIDMA, Fusion (Q bulb), Air, 20 ft/min): > 4B
Pencil hardness ([3]; 1% NPG, Dental Lamp, Air, 60 sec): 2B
Pencil hardness ([3]; 1% NPG, Dental Lamp, No Air, 10 sec): < 4B
Pencil hardness ([3]; 1% NPG, Dental Lamp, No Air, 30 sec): 2H
Pencil hardness ([3]; 1% NPG, Dental Lamp, No Air, 60 sec): 3H
Pencil hardness ([3]; 1% NPG, Fusion (Q bulb), Air, 10 ft/min): > 6H
Pencil hardness ([3]; 1% NPG, Fusion (Q bulb), Air, 20 ft/min): 3H
Pencil hardness ([3]; 1% NPG, Overhead Proj., Air, 60 sec): 3B
Pencil hardness ([3]; 1% NPG, Overhead Proj., No Air, 60 sec): 3H
depth of cure ([4]; 0.01 and 0.03 weight %, 2 passes, 300 watt per inch medium pressure mercury arc lamp, 50 feet/minute, 2% DIDMA): greater than 3 mm
depth of cure ([4]; 0.1 weight %, 300 watt per inch medium pressure mercury arc lamp, 50 feet/minute, 2% DIDMA): greater than 1.5 mm
depth of cure ([4]; 10 seconds, 75 watt tungsten halogen, about 260 mw/cm^2, 0.05 weight % dye, 2 weight % DIDMA, 60% urethane diacrylate, 30% DPHPA, 10% BDDA): greater than 1 cm
depth of cure ([4]; 10 seconds, 75 watt tungsten halogen, 0.01, 0.05 or 0.1 weight %, 2% DIDMA, TMPTA/DPHPA/Epoxy acrylate): greater than 1 cm
depth of cure ([4]; 30 seconds, 350 watt tungsten halogen, about 500 mw/cm^2, dye 0.01, 0.05 and 0.1 weight, NPG 20 to 1): 3 cm
cure time for the same depth (3 cm) ([4]; about 2 watts/cm^2, NPG 20 to 1): 5 s

Eox [5]: 1.34
Ered [5]: -.99
pKa [6]: 5.97
λmax in EtOH (first value) [1]: 504
ε (first value) [1]: 24700
λmax ([1]; methanol, synthesis example): 500 nm
φf [7]: .95
Molecule: O=c1ccc2cc3ccc(O)cc3oc-2c1 [HF, 3-Hydroxy-6-fluorone]

λmax in EtOH (first value) [1]: 472
Molecule: Cc1ccc(-n2c3cc(=N)ccc-3cc3ccc(N)cc32)cc1 [N.phi.CH3 NH2 /NH2 + H H H H H]

λmax in EtOH (first value) [1]: 472
Molecule: C=CC(=O)OCCCCCCOc1ccc2cc3cc(I)c(=O)c(I)c-3oc2c1 [O O/O(CH2)6 OCOCH=CH2 H I H I H]

λmax in EtOH [1]: 548
λmax in EtOH (first value) [1]: 594
ε (first value) [1]: 50300
ε [1]: 24700 M⁻¹ cm⁻¹
Molecule: N#Cc1c2ccc(=O)cc-2oc2cc(O)ccc12 [O O/O^- CN H H H H, 9-Cyano-3-hydroxy-6-fluorone]

λmax in EtOH (first value) [1]: 510
Molecule: CCOC(=O)CCCc1cc2cc3ccc(=O)cc-3oc2cc1O [O O/O^- H H H H (CH2)3 COOEt]

λmax in EtOH (first value) [1]: 534
ε (first value) [1]: 92,600
Molecule: CCCCCCCCc1cc2cc3cc(I)c(=O)c(I)c-3oc2c(I)c1O [O O/O^- H I H I (CH2)7 CH3, 3-hydroxy-4,5,7-triiodo-2-octyl-6-fluorone]

λmax in EtOH (first value) [1]: 610
Molecule: N#Cc1c2ccc(=O)cc-2sc2cc(O)ccc12 [S O/O^- CN H H H H]

λmax in EtOH [1]: 586
λmax in EtOH (first value) [1]: 638
ε (first value) [1]: 80000
ε [1]: 35000 M⁻¹ cm⁻¹
absorption wavelength [1]: 636 nm
λmax ([1]; ethanol, synthesis example): 638 nm
Molecule: N#Cc1c2cc(I)c(=O)c(I)c-2oc2c(I)c(O)c(I)cc12 [TIHCF, 9-cyano-3-hydroxy-2,4,5,7-tetraiodo-6-fluorone]
depth of cure results ([4]; other fluorone dyes): have also been observed
